# Source: patent US20050197350A1, “Novel quinoline, tetrahydroquinazoline, and pyrimidine derivatives and methods of treatment related to the use thereof” (TAISHO PHARMACEUTICAL CO., LTD., priority 2003, published 2005)
# System: MCH receptors
# Test: MCH receptor activity class (method not given)
# Details: MCH receptor activity class 1-3 (percent of control at 10^-7 M or IC50)
row,Compound,class
1,Cc1ccccc1NC(=O)NC[C@H]1CC[C@@H](Nc2nccc(N(C)C)n2)CC1 [compound 2414],3 (Class 3 The value of percent of control at 10^−7 M was more than 60% or the value of IC50 was more than 200 nM.)
2,CCOC(=O)[C@H](CC(C)C)NC(=O)NC[C@H]1CC[C@@H](Nc2nc3c(c(N(C)C)n2)CCCC3)CC1 (relative stereo) [compound 2455],2 (Class 2: The value of percent of control at 10^−7 M was from 40% to 60% or the value of IC′50 was from 50 nM to 200 nM.)

# Same assay, conditions: MCH receptor; class by percent of control at 10^-7 M or IC50
row,Compound,class
1,Cc1cccc(CNC(=S)N[C@H]2CC[C@@H](Nc3nc4c(c(N(C)C)n3)CCCC4)CC2)c1 [compound 2045],3 (Class 3 The value of percent of control at 10^−7 M was more than 60% or the value of IC50 was more than 200 nM.)
2,CN(C)c1nc(N[C@H]2CC[C@@H](NC(=O)Nc3cc(Cl)nc(Cl)c3)CC2)nc2c1CCCC2 [compound 1923],3 (Class 3 The value of percent of control at 10^−7 M was more than 60% or the value of IC50 was more than 200 nM.)

# Same assay, conditions: activity class 1-3: percent of control at 10^-7 M or IC50
row,Compound,class
1,Cc1ccc(OC(=O)NC[C@H]2CC[C@@H](Nc3nc4c(c(N(C)C)n3)CCCC4)CC2)cc1 [compound 1614],3 (Class 3 The value of percent of control at 10^−7 M was more than 60% or the value of IC50 was more than 200 nM.)
2,CCc1cccc(C)c1NC(=O)N[C@H]1CC[C@@H](Nc2nc3c(c(N(C)C)n2)CCCC3)CC1 [compound 1662],1 (Class 1: The value of percent of control at 10^−7 M was less than 40% or the value of IC50 was less than 50 nM.)
3,C=CCOC(=O)NC[C@H]1CC[C@@H](Nc2nc3c(c(N(C)C)n2)CCCC3)CC1 [compound 1610],3 (Class 3 The value of percent of control at 10^−7 M was more than 60% or the value of IC50 was more than 200 nM.)

# Same assay, conditions: activity class per percent of control at 10^-7 M or IC50
row,Compound,class
1,CN(C)c1cc(N[C@H]2CC[C@@H](NCc3coc4ccc(Cl)cc4c3=O)CC2)nc2ccccc12 [compound 1113],3 (Class 3 The value of percent of control at 10^−7 M was more than 60% or the value of IC50 was more than 200 nM.)
2,CSc1sc(C(=O)N[C@H]2CC[C@@H](Nc3nc4c(c(N(C)C)n3)CCCC4)CC2)c(I)c1S(=O)(=O)C(C)C [compound 1042],3 (Class 3 The value of percent of control at 10^−7 M was more than 60% or the value of IC50 was more than 200 nM.)

# Same assay, conditions: class 1-3 by percent of control at 10^-7 M or IC50
row,Compound,class
1,"CN(C)c1nc(N[C@H]2CC[C@@H](NC(=O)c3cc(Cl)sc3Cl)CC2)nc2c1CCCC2 [compound 519, 2,5-dichloro-N-(cis-4-{[4-(dimethylamino)-5,6,7,8-tetrahydroquinazolin-2-yl]amino}cyclohexyl)thiophene-3-carboxamide]",1 (Class 1: The value of percent of control at 10^−7 M was less than 40% or the value of IC50 was less than 50 nM.)
2,"CN(C)c1nc(N[C@H]2CC[C@@H](NC(=O)C3C[C@H]3c3ccccc3)CC2)nc2c1CCCC2 (stereo partly drawn) [compound 482, (2R)-N-(cis-4-{[4-(dimethylamino)-5,6,7,8-tetrahydroquinazolin-2-yl]amino}cyclohexyl)-2-phenylcyclopropanecarboxamide]",2 (Class 2: The value of percent of control at 10^−7 M was from 40% to 60% or the value of IC′50 was from 50 nM to 200 nM.)
3,CN(C)c1nc(N[C@H]2CC[C@@H](NC(=O)c3cc(C(C)(C)C)nn3C)CC2)nc2c1CCCC2 [compound 522],3 (Class 3 The value of percent of control at 10^−7 M was more than 60% or the value of IC50 was more than 200 nM.)
4,CN(C)c1nc(N[C@H]2CC[C@@H](CNC(=O)c3ccc(Cl)c(Cl)c3)CC2)nc2c1CCCC2 [compound 593],3 (Class 3 The value of percent of control at 10^−7 M was more than 60% or the value of IC50 was more than 200 nM.)

# Same assay, conditions: class by percent of control at 10^-7 M or IC50
row,Compound,class
1,Cc1sc(-c2ccccc2)nc1CC(=O)N[C@H]1CC[C@@H](Nc2cc(N(C)C)c3ccccc3n2)CC1 [compound 712],3 (Class 3 The value of percent of control at 10^−7 M was more than 60% or the value of IC50 was more than 200 nM.)
2,CCOc1cccc(CN[C@H]2CC[C@@H](Nc3nc4c(c(N(C)C)n3)CCCC4)CC2)c1 [compound 1486],3 (Class 3 The value of percent of control at 10^−7 M was more than 60% or the value of IC50 was more than 200 nM.)
3,Cc1cc(NC(=O)N[C@H]2CC[C@@H](Nc3nc4c(c(N(C)C)n3)CCCC4)CC2)c([N+](=O)[O-])cc1C [compound 1880],3 (Class 3 The value of percent of control at 10^−7 M was more than 60% or the value of IC50 was more than 200 nM.)
4,CN(C)c1cc(N[C@H]2CC[C@@H](NC(=O)CCC3CCCCC3)CC2)nc2ccccc12 [compound 695],3 (Class 3 The value of percent of control at 10^−7 M was more than 60% or the value of IC50 was more than 200 nM.)
5,"Cc1ccc(C(=O)N[C@H]2CC[C@@H](Nc3nccc(N(C)C)n3)CC2)cc1[N+](=O)[O-] [compound 261, N-(cis-4-{[4-(dimethylamino)pyrimidin-2-yl]amino}cyclohexyl)-4-methyl-3-nitrobenzamide]",2 (Class 2: The value of percent of control at 10^−7 M was from 40% to 60% or the value of IC′50 was from 50 nM to 200 nM.)
6,COc1cc(CC(=O)N[C@H]2CC[C@@H](Nc3nccc(N(C)C)n3)CC2)cc(OC)c1 [compound 841],3 (Class 3 The value of percent of control at 10^−7 M was more than 60% or the value of IC50 was more than 200 nM.)
7,COc1ccc(CC(=O)N[C@H]2CC[C@@H](Nc3nccc(N(C)C)n3)CC2)cc1OC [compound 341],3 (Class 3 The value of percent of control at 10^−7 M was more than 60% or the value of IC50 was more than 200 nM.)
8,"CN(C)c1ccnc(N[C@H]2CC[C@@H](CNC(=O)Cc3c(Cl)ccc(Cl)c3Cl)CC2)n1 [compound 926, N-[(cis-4-{[4-(dimethylamino)pyrimidin-2-yl]amino}cyclohexyl)methyl]-2-(2,3,6-trichlorophenyl)acetamide]",1 (Class 1: The value of percent of control at 10^−7 M was less than 40% or the value of IC50 was less than 50 nM.)
9,CN(C)c1ccnc(N[C@H]2CC[C@@H](NC(=O)c3ccc(Br)cc3)CC2)n1 [compound 240],3 (Class 3 The value of percent of control at 10^−7 M was more than 60% or the value of IC50 was more than 200 nM.)
10,Cc1cc(Br)ccc1NC(=S)N[C@H]1CC[C@@H](Nc2cc(N(C)C)c3ccccc3n2)CC1 [compound 2284],2 (Class 2: The value of percent of control at 10^−7 M was from 40% to 60% or the value of IC′50 was from 50 nM to 200 nM.)
11,Cc1cc([N+](=O)[O-])ccc1NC(=O)N[C@H]1CC[C@@H](Nc2nccc(N(C)C)n2)CC1 [compound 2234],3 (Class 3 The value of percent of control at 10^−7 M was more than 60% or the value of IC50 was more than 200 nM.)
12,CCCCCC(=O)NC[C@H]1CC[C@@H](Nc2nc3c(c(N(C)C)n2)CCCC3)CC1 [compound 602],3 (Class 3 The value of percent of control at 10^−7 M was more than 60% or the value of IC50 was more than 200 nM.)
13,Cc1cccc(NC(=O)N[C@H]2CC[C@@H](Nc3cc(N(C)C)c4ccccc4n3)CC2)c1C [compound 2126],3 (Class 3 The value of percent of control at 10^−7 M was more than 60% or the value of IC50 was more than 200 nM.)
14,COC(=O)c1ccccc1Sc1nc2sccn2c1CN[C@H]1CC[C@@H](Nc2nc3c(c(N(C)C)n2)CCCC3)CC1 [compound 1358],3 (Class 3 The value of percent of control at 10^−7 M was more than 60% or the value of IC50 was more than 200 nM.)
15,CN(C)c1nc(N[C@H]2CC[C@@H](CNCc3ccccc3C#N)CC2)nc2c1CCCC2 [compound 1389],3 (Class 3 The value of percent of control at 10^−7 M was more than 60% or the value of IC50 was more than 200 nM.)
16,CCOc1ccc(OCC)c(CNC[C@H]2CC[C@@H](Nc3cc(N(C)C)c4ccccc4n3)CC2)c1 [compound 1169],2 (Class 2: The value of percent of control at 10^−7 M was from 40% to 60% or the value of IC′50 was from 50 nM to 200 nM.)
17,CN(C)c1nc(N[C@H]2CC[C@@H](NC(=O)c3ccc(Cl)s3)CC2)nc2c1CCCC2 [compound 953],1 (Class 1: The value of percent of control at 10^−7 M was less than 40% or the value of IC50 was less than 50 nM.)
18,CCCCCC(=O)N[C@H]1CC[C@@H](Nc2nccc(N(C)C)n2)CC1 [compound 258],3 (Class 3 The value of percent of control at 10^−7 M was more than 60% or the value of IC50 was more than 200 nM.)
19,CN(C)c1ccnc(N[C@H]2CC[C@@H](CNC(=O)OCc3ccc([N+](=O)[O-])cc3)CC2)n1 [compound 401],3 (Class 3 The value of percent of control at 10^−7 M was more than 60% or the value of IC50 was more than 200 nM.)
20,"CC(NC(=O)N[C@H]1CC[C@@H](Nc2nc3c(c(N(C)C)n2)CCCC3)CC1)c1ccc(Br)cc1 (relative stereo) [compound 1728, N-[1-(4-bromophenyl)ethyl]-N′-(cis-4-{[4-(dimethylamino)-5,6,7,8-tetrahydroquinazolin-2-yl]amino}cyclohexyl)urea]",2 (Class 2: The value of percent of control at 10^−7 M was from 40% to 60% or the value of IC′50 was from 50 nM to 200 nM.)

# Same assay, conditions: class by percent of control at 10^−7 M or IC50
row,Compound,class
1,Cc1ccc(C(=O)N[C@H]2CC[C@@H](CNc3ncc(C)c(N(C)C)n3)CC2)cc1 [compound 2713],3 (Class 3 The value of percent of control at 10^−7 M was more than 60% or the value of IC50 was more than 200 nM.)
2,"Cc1cnc(NC[C@H]2CC[C@@H](NC(=O)c3cc(Cl)cc(Cl)c3)CC2)nc1N(C)C [compound 2728, 3,5-dichloro-N-[cis-4-({[4-(dimethylamino)-5-methylpyrimidin-2-yl]amino}methyl)cyclohexyl]benzamide]",2 (Class 2: The value of percent of control at 10^−7 M was from 40% to 60% or the value of IC′50 was from 50 nM to 200 nM.)
3,COc1cc(CN[C@H]2CC[C@@H](Nc3ncc(C)c(N(C)C)n3)CC2)cc(OC)c1 [compound 3000],2 (Class 2: The value of percent of control at 10^−7 M was from 40% to 60% or the value of IC′50 was from 50 nM to 200 nM.)
4,CCCCc1ccc(C(=O)N[C@H]2CC[C@@H](Nc3nc(C)cc(N(C)C)n3)CC2)cc1 [compound 2952],3 (Class 3 The value of percent of control at 10^−7 M was more than 60% or the value of IC50 was more than 200 nM.)
